Each compound was assayed on CT DNA (assay: CT DNA binding by UV–Vis absorption spectroscopy). Conditions: compound 40 µM, CT DNA 0 to 60 µM, Tris-HCl pH 7.4.
Parameters: species or system calf
Experimental: Absorption spectroscopy is a convenient and simple method for probing the binding of small molecules to DNA. The interaction of selected acridine–thiosemicarbazone derivatives with CT DNA was studied in the 220–500 nm region. Binding constants (Kb) were calculated from [DNA]/(Ɛa − Ɛf) versus [DNA], in which Kb is given by the ratio of slope to the intercept. […] For this, the regions chosen were the ones with the highest absorption intensity above 300 nm, due to the lower interference in DNA absorption in this region (ESI, Figures S50 and S53).
The concentration of the calf thymus, Type I, fibers (CT DNA), was determined based on the extinction coefficient of the absorbance at 260 nm (6600 L mol^−1 cm^−1). All compounds were dissolved in methanol (HPLC grade) at a concentration of 1 mmol L^−1 (stock solution). Working solutions were prepared by diluting the stock solution using Tris-HCl buffer (pH 7.4), with concentrations of 40 µmol L^−1. Under the optimized concentration, the compounds were titered with increasing concentrations of CT DNA (5 to 60 µmol L^−1). After shaking the system and incubating at room temperature for 10 min, the measurements were recorded using a JASCO J818 spectropolarimeter in the range of 220 to 500 nm at 298 K. The intrinsic bond constant (Kb) was obtained by adjusting the data according to the equation below:[DNA]/(Ɛa − Ɛf) = [DNA]/(Ɛb − Ɛf) + 1/[Kb (Ɛb − Ɛf)] where Ɛa, Ɛb and Ɛf are the apparent extinction coefficient of the compounds, the extinction coefficient of the compounds found in their […] and the extinction coefficient of the compounds when fully DNA-bound, respectively. The graph of [DNA]/(Ɛa − Ɛf) versus [DNA] was used to obtain the Kb from the ratio between the slope and the intercept, as previously described in the literature. Binding data were obtained using SigmaPlot 10.0 software. The study of possible DNA denaturation using methanol–water solutions was evaluated up to the maximum final concentration of methanol in the assays (6%) (ESI, Figures S50 and S53).
For `COc1ccc2nc3cc(Cl)ccc3c(NC(=S)N/N=C/c3cccc(O)c3)c2c1` [DL-08, (E)-N-(6-chloro-2-methoxyacridin-9-yl)-2-(3-hydroxybenzylidene)hydrazine-1-carbothioamide], the “Hypochromic (%)” value was 14.79%. For `Oc1ccc(/C=N/NC(=S)Nc2c3ccccc3nc3ccccc23)cc1` [CL-07, (E)-N-(acridin-9-yl)-2-(4-hydroxybenzylidene)hydrazine-1-carbothioamide], the “Hypochromic (%)” value was 25.52%. `COc1ccc2nc3cc(Cl)ccc3c(NC(=S)N/N=C/c3ccccc3)c2c1` [DL-01, (E)-2-benzylidene-N-(6-chloro-2-methoxyacridin-9-yl)hydrazine-1-carbothioamide] was tested, and the “Hypochromic (%)” value was 12.89%.

From article PMC9506480, “Synthesis and Evaluation of Antiproliferative Activity, Topoisomerase IIα Inhibition, DNA Binding and Non-Clinical Toxicity of New Acridine–Thiosemicarbazone Derivatives” (Pharmaceuticals, 2022)
